Results: patent publication US9056843B2, “Trifluoromethyl-oxadiazole derivatives and their use in the treatment of disease” (NOVARTIS AG, priority 2011, dated 2015)

Columns and labels:
Assay type in all cases: biochemical
Human recombinant HDAC4 [1] = target: T1, Human recombinant HDAC4 (Homo sapiens (Human), UniProt P56524); test: Test 1: HDAC4 assay (fluorogenic substrate, 10 μM acetyl-Gly-Ala-Lys(trifluoroacetyl)-AMC); conditions: Test 1 (values indicated by an asterisk)
Protocol: Test 1: HDAC4 Assay Description
Human recombinant HDAC4 was expressed in full length form (aa 2-1084) in Sf9 insect cells (obtained from ATCC) using baculovirus generated with Bac-to-Bac system (Invitrogen). Test compounds were serially diluted to reach final test concentrations from 0.003 μM to 100 μM. HDAC4 and test compounds were incubated in 25 mM Tris buffer pH 8.0 containing 137 mM NaCl, 2.7 mM KCl, 1 mM MgCl2 and 0.05% (w/v) bovine serum albumine for 2 hours at room temperature in presence of 10 μM of acetyl-Gly-Ala-Lys(E-trifluoroacetyl)-AMC (AMC=7-amino-4-methyl coumarin) in a final volume of 200 μl. Control wells with HDAC4 only (positive control) and without HDAC4 (negative control) were included on the microplate. Bovine trypsin (10 μl of a 0.4 mg/ml solution) was added and the plate incubated for additional 15 minutes at room temperature. The plate was placed in a fluorescence microplate reader, and read at an excitation wavelength of 360 nm and an emission wavelength of 450 nm with a cut-off filter of 435 nm. Fluorescence values for all wells containing HDAC4 (positive control and wells with test compound) were corrected by subtracting negative control fluorescence values, and IC50 values were calculated by fitting the dose-response curves to a 4-parameter logistic function.
HDAC4 IC50 values were obtained using Test 2, except those values indicated by an asterisk which were obtained using Test 1. NT=Not Tested

Human recombinant HDAC4 [2] = target: T1, Human recombinant HDAC4; test: Test 2: HDAC4 assay (fluorogenic substrate, 5 μM acetyl-Gly-Ala-Lys(ε-trifluoroacetyl)-AMC); conditions: Test 2 (values without asterisk)
Procedure, shortened: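 After the reaction, bovine trypsin (300 nM solution) was added for 15 min at RT to develop the signal; fluorescence read at 360/450 nm. No-enzyme background subtracted; IC50 from 4-parameter logistic fit of dose-response curves.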

[3] = target: Human recombinant full length HDAC1 (Homo sapiens (Human), UniProt Q13547); test: Test 3: HDAC1 assay; conditions: substrate 5 μM acetyl-Gly-Ala-Lys(acetyl)-AMC
Procedure, shortened: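 Baculovirus-expressed full-length human HDAC1 with 5 μM acetyl-Gly-Ala-Lys(acetyl)-AMC substrate, developed with trypsin 15 min at room temperature.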

[4] = target: Human recombinant full length HDAC6 (Homo sapiens (Human), UniProt Q9UBN7); test: Test 4: HDAC6 assay; conditions: Test 4; substrate 5 μM acetyl-Gly-Ala-Lys(acetyl)-AMC
Procedure, shortened: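 Baculovirus-expressed full-length recombinant human HDAC6 with 5 μM acetyl-Gly-Ala-Lys(acetyl)-AMC substrate, developed with trypsin 15 min at room temperature.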

Sequence of Human recombinant full length HDAC1 (Q13547 whole entry): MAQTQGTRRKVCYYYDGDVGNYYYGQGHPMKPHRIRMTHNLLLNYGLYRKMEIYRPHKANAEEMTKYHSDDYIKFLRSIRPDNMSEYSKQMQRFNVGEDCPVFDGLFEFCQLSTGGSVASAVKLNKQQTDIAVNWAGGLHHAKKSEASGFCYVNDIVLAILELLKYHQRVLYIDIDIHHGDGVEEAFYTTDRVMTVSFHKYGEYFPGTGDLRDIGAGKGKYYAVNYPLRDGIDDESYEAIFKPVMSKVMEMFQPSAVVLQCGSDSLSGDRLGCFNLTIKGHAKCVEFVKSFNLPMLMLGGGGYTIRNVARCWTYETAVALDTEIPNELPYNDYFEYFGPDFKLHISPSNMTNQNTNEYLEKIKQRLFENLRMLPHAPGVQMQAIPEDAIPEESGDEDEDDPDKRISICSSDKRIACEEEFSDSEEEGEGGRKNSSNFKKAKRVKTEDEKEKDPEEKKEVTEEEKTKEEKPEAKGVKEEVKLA
Sequence of Human recombinant full length HDAC6 (Q9UBN7 whole entry): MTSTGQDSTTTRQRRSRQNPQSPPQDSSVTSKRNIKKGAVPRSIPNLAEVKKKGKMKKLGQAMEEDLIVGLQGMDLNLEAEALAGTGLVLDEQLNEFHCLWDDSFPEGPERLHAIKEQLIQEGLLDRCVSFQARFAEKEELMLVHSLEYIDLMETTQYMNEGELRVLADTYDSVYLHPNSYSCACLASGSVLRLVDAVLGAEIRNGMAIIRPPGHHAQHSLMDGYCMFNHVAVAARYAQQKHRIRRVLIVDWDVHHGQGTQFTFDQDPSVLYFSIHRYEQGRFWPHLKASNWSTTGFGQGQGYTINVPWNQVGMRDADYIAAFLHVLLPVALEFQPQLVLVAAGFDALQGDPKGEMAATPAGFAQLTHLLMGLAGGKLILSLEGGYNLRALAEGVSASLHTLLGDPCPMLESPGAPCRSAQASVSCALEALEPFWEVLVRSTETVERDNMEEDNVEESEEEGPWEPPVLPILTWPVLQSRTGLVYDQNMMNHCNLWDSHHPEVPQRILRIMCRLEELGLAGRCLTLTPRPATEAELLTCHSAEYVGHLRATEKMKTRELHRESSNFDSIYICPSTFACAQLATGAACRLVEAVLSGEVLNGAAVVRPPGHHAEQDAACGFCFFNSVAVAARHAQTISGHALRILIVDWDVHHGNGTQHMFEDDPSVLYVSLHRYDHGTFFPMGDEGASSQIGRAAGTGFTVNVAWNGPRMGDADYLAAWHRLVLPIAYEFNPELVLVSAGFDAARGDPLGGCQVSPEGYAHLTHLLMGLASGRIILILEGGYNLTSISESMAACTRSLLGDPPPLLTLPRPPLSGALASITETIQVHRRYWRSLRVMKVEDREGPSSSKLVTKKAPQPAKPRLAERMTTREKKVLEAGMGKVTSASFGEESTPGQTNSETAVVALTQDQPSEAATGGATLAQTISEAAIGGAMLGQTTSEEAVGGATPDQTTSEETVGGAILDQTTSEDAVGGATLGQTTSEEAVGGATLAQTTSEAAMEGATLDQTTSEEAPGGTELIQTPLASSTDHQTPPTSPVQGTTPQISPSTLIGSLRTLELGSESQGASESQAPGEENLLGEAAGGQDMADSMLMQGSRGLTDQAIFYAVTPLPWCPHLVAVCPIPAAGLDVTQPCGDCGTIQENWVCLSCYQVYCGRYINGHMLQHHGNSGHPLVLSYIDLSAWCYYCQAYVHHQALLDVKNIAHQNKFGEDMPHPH
T1 sequence (P56524 2-1084): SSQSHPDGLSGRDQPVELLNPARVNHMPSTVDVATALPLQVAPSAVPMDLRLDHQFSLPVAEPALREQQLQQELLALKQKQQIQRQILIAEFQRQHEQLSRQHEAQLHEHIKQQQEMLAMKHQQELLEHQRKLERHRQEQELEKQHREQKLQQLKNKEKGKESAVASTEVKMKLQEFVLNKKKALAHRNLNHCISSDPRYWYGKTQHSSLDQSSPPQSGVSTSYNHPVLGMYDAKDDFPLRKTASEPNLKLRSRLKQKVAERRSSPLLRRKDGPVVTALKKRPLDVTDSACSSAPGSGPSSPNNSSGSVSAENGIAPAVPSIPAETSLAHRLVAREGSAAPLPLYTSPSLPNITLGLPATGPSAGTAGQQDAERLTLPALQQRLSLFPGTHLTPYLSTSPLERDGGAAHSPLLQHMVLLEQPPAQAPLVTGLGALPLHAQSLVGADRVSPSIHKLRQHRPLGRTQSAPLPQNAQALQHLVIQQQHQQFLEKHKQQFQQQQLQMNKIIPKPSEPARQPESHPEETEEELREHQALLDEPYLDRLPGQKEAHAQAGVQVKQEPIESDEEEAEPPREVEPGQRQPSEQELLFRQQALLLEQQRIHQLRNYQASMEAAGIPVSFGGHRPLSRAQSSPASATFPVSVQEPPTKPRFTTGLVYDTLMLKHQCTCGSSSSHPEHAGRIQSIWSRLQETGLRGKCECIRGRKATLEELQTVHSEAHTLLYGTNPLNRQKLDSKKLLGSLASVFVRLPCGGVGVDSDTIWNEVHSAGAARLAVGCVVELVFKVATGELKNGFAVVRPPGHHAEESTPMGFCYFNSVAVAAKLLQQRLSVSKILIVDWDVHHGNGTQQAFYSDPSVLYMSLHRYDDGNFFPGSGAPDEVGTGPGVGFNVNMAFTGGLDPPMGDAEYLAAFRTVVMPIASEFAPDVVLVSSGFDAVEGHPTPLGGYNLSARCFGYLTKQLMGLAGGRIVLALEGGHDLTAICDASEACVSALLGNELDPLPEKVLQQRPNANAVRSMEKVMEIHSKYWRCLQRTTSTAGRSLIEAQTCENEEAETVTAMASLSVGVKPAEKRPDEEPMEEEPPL

| Compound | IC50 (Human recombinant HDAC4 [1]) [nM] | IC50 (Human recombinant HDAC4 [2]) [nM] | IC50 [3] [nM] | IC50 [4] [nM] |
| --- | --- | --- | --- | --- |
| O=C(NC1CC1)c1ccc(-c2noc(C(F)(F)F)n2)cc1 [Example 19, N-cyclopropyl-4-(5-(trifluoromethyl)-1,2,4-oxadiazol-3-yl)benzamide] | 120 |  |  |  |
| Cc1cc(NC(=O)c2ccc(-c3noc(C(F)(F)F)n3)cc2)ccn1 [Example 70, N-(2-methylpyridin-4-yl)-4-(5-(trifluoromethyl)-1,2,4-oxadiazol-3-yl)benzamide] | 90 |  |  |  |
| O=S(=O)(Nc1cccnc1)c1ccc(-c2noc(C(F)(F)F)n2)cc1 [Example 100, N-(ppyridin-3-yl)-4-(5-(trifluoromethyl)-1,2,4-oxadiazol-3-yl)benzenesulfonamide] | 70 |  |  |  |
| CN(C)c1ccc(NC(=O)c2ccc(-c3noc(C(F)(F)F)n3)cc2)cc1 [Example 41, N-(4-(dimethylamino)phenyl)-4-(5-(trifluoromethyl)-1,2,4-oxadiazol-3-yl)benzamide] | 1500 |  |  |  |
| CCN(CC)C[C@H](C)NC(=O)c1ccc(-c2noc(C(F)(F)F)n2)cc1 [Example 133, (S)—N-(1-(diethylamino)propan-2-yl)-4-(5-(trifluoromethyl)-1,2,4-oxadiazol-3-yl)benzamide] | 48 |  |  |  |
| O=S(=O)(Nc1cccc(F)c1)c1ccc(-c2noc(C(F)(F)F)n2)cc1 [Example 106, N-(3-fluorophenyl)-4-(5-(trifluoromethyl)-1,2,4-oxadiazol-3-yl)benzenesulfonamide] | 200 |  |  |  |
| CCN(CC)C[C@H](NC(=O)c1ccc(-c2noc(C(F)(F)F)n2)cc1F)C(C)C [Example 135, (R)—N-(1-(diethylamino)-3-methylbutan-2-yl)-2-fluoro-4-(5-(trifluoromethyl)-1,2,4-oxadiazol-3-yl)benzamide] |  | 10 | > 10000 | > 10000 |
| N#Cc1cc(NC(=O)c2ccc(-c3noc(C(F)(F)F)n3)cc2)ccn1 [Example 73, N-(2-cyanopyridin-4-yl)-4-(5-(trifluoromethyl)-1,2,4-oxadiazol-3-yl)benzamide] |  | 53 | > 10000 | 6100 |
| O=C(Nc1ccnc(Cl)c1)c1ccc(-c2noc(C(F)(F)F)n2)cc1 [Example 75, N-(2-chloropyridin-4-yl)-4-(5-(trifluoromethyl)-1,2,4-oxadiazol-3-yl)benzamide] |  | 160 | > 10000 | > 10000 |
| CN(C)CCN(C)C(=O)c1ccc(-c2noc(C(F)(F)F)n2)cc1 [Example 37, N-(2-(dimethylamino)ethyl)-N-methyl-4-(5-(trifluoromethyl)-1,2,4-oxadiazol-3-yl)benzamide] |  | 340 | > 10000 | > 10000 |
| CC(C)C[C@H](CN(C)C)NC(=O)c1ccc(-c2noc(C(F)(F)F)n2)cc1 [Example 85, (R)—N-(1-(dimethylamino)-4-methylpentan-2-yl)-4-(5-(trifluoromethyl)-1,2,4-oxadiazol-3-yl)benzamide] |  | 48 | > 10000 | > 10000 |
| O=C(NCCCn1ccnc1)c1ccc(-c2noc(C(F)(F)F)n2)cc1 [Example 40, N-(3-(1 H-imidazol-1-yl)propyl)-4-(5-(trifluoromethyl)-1,2,4-oxadiazol-3-yl)benzamide] |  | 460 | > 10000 | 4600 |
| CC(C)[C@@H](CN(C)C)NC(=O)c1ccc(-c2noc(C(F)(F)F)n2)cc1 [Example 83, (S)—N-(1-(dimethylamino)-3-methylbutan-2-yl)-4-(5-(trifluoromethyl)-1,2,4-oxadiazol-3-yl)benzamide] |  | 15 | > 10000 | > 10000 |
| O=C(NCCO)c1ccc(-c2noc(C(F)(F)F)n2)cc1 [Example 13, N-(2-hydroxyethyl)-4-(5-(trifluoromethyl)-1,2,4-oxadiazol-3-yl)benzamide] |  | 660 | > 10000 | 8900 |
| CCN(C)C[C@@H](C)NC(=O)c1ccc(-c2noc(C(F)(F)F)n2)cc1 [Example 136, (R)—N-(1-(ethyl(methyl)amino)propan-2-yl)-4-(5-(trifluoromethyl)-1,2,4-oxadiazol-3-yl)benzamide] |  | 8.9 | > 10000 | > 10000 |
| O=C(NC1CCNC1)c1ccc(-c2noc(C(F)(F)F)n2)cc1 (stereo not drawn) [Example 80, N-(pyrrolidin-3-yl)-4-(5-(trifluoromethyl)-1,2,4-oxadiazol-3-yl)benzamide] |  | 470 | > 10000 | > 10000 |
| O=C(NC1CCCC1)c1ccc(-c2noc(C(F)(F)F)n2)cc1 [Example 29, N-cyclopentyl-4-(5-(trifluoromethyl)-1,2,4-oxadiazol-3-yl)benzamide] |  | 1200 | > 10000 | > 10000 |
| CC(C)NC(=O)Cc1ccc(-c2noc(C(F)(F)F)n2)cc1 [Example 5, N-Isopropyl-2-[4-(5-trifluoromethyl-[1,2,4]oxadiazol-3-yl)-phenyl]-acetamide] |  | 970 | > 10000 | 3100 |
| O=S(=O)(Nc1ccccc1Cl)c1ccc(-c2noc(C(F)(F)F)n2)cc1 [Example 104, N-(2-chlorophenyl)-4-(5-(trifluoromethyl)-1,2,4-oxadiazol-3-yl)benzenesulfonamide] |  | 840 | > 10000 | 770 |
| C[C@H](CN(C)Cc1ccccc1)NC(=O)c1ccc(-c2noc(C(F)(F)F)n2)cc1 [Example 156, (R)—N-(1-(benzyl(methyl)amino)propan-2-yl)-4-(5-(trifluoromethyl)-1,2,4-oxadiazol-3-yl)benzamide] |  | 0.85 | 2900 | 2300 |
